Patent US10941157B2, “Pesticidal compositions and uses thereof” (Gilead Apollo, LLC, priority 2015, dated 2021)
Values after ≈ are worked out from the molar mass of the structure shown.

What was measured:
[1] = tested on: Fusarium moniliforme (Fm); experiment: In vitro pathogen growth inhibition assay, Fm; format: cell-based; conditions: Fusarium verticillioides; ≥90% growth inhibition; 48 hours; vs 2% DMSO control; read-out: Compound Concentration (ppm) sufficient for ≥90% inhibition of Fm
Summary of the method: (§1)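 Value reported is the compound concentration reaching ≥90% growth inhibition, from OD readings at 24 and 48 h after blank subtraction, confirmed visually. Inoculum was spores diluted in 17% V8 medium, except Rs, using 1.5 mm mycelial plugs in ¼ PDB; actual compound concentration corrected via OD600.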

Diplodia maydis (Dm) = experiment: In vitro pathogen growth inhibition assay, Dm; format: cell-based; conditions: Stenocarpella maydis, 48 h, ≥90% growth inhibition; 48 hours; vs 2% DMSO control; read-out: Compound Concentration (ppm) sufficient for ≥90% inhibition of Dm
Summary of the method: (§2)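 Spores in 17% V8 liquid medium, or 1.5 mm Rs mycelial plugs in ¼ PDB, incubated with compound; final concentration checked by OD600 for precipitation. OD readings at 24 and 48 h, blank-subtracted, plus visual ratings; value is concentration giving ≥90% growth inhibition.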

[2] = tested on: Mycosphaerella graminicola (synthetic Septoria tritici); experiment: Foliar protection test for wheat septoria leaf blotch control; format: in vivo; conditions: foliar spray on Triticum aestivum cv. WinterHawk, inoculated 1 hour after treatment, evaluated 16 days later
[3] = tested on: Blumeria graminis f. sp. hordei; experiment: Foliar protection test for barley powdery mildew control; format: in vivo; conditions: foliar spray on Hordeum vulgare cv. Perry, inoculated 24 hours after treatment, evaluated 7 days later
Summary of the method: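 Protective foliar test: compound atomized onto both leaf surfaces of 6-day-old Hordeum vulgare cv. Perry, followed after 24 h by spore-cloud inoculation from colonized untreated plants. Disease rated on leaves 7 days on, plants held at 20 to 22° C and 70% RH.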

Botrtyis cinerea (Bc) = experiment: In vitro pathogen growth inhibition assay, Bc; format: cell-based; conditions: 48 h, ≥90% growth inhibition; 48 hours; vs 2% DMSO control; read-out: Compound Concentration (ppm) sufficient for ≥90% inhibition of Bc
Summary of the method: as §1

Fusarium graminearum = format: in vivo; conditions: spray on flowering Triticum aestivum cv. Samson, inoculated 24 hours after treatment, evaluated 14 days later
Phakopsora pachyrhizi = experiment: Foliar protection test for Asian soybean rust control; format: in vivo; conditions: foliar application to soybean (Glycine max AG4832), percent disease area evaluated 14 days later
[4] = tested on: Phytophthora capsici (Pc); experiment: In vitro pathogen growth inhibition assay, Pc; format: cell-based; conditions: 48 h, ≥90% growth inhibition, 48 hours, vs 2% DMSO control, read-out: Compound Concentration (ppm) sufficient for ≥90% inhibition of Pc
Summary of the method: as §2

[5] = tested on: Fusarium virguliforme (Fv); experiment: In vitro pathogen growth inhibition assay, Fv; format: cell-based; conditions: ≥90% growth inhibition, 48 hours, vs 2% DMSO control, read-out: Compound Concentration (ppm) sufficient for ≥90% inhibition of Fv
Summary of the method: as §2

Septoria tritici (St) = experiment: In vitro pathogen growth inhibition assay, St; format: cell-based; conditions: Zymoseptoria tritici, 48 h, ≥90% growth inhibition; 48 hours; vs 2% DMSO control; read-out: Compound Concentration (ppm) sufficient for ≥90% inhibition of St
Summary of the method: as §1

[6] = tested on: Collectotrichum graminicola (Cg); experiment: In vitro pathogen growth inhibition assay, Cg; format: cell-based; conditions: 48 h, ≥90% growth inhibition; 48 hours; vs 2% DMSO control; read-out: Compound Concentration (ppm) sufficient for ≥90% inhibition of Cg
Summary of the method: as §1

Puccinia triticina = experiment: Foliar protection test for wheat leaf rust control; format: in vivo; conditions: foliar application to wheat (Triticum aestivum cv. Winterhawk), evaluated 10 days later
Rhizoctonia solani (Rs) = experiment: In vitro pathogen growth inhibition assay, Rs (mycelial plugs); format: cell-based; conditions: Rhizoctonia solani, 48 h, ≥90% growth inhibition; mycelial plugs; 48 hours; vs 2% DMSO control; read-out: Compound Concentration (ppm) sufficient for ≥90% inhibition of Rs
Summary of the method: as §2

Sphaerotheca fuliginea = experiment: Foliar protection for cucumber powdery mildew control; format: in vivo; conditions: foliar spray on Cucumis sativus cv. Straight Eight, inoculated 24 hours after treatment, evaluated 7 days later
Summary of the method: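 Protective foliar spray on 10-day-old Straight Eight cucumbers, with S. fuliginea spores dusted from infected stock plants 24 h after treatment. Disease developed at 23–27 °C, 60% RH and a 16 h photoperiod. Leaves were rated for mildew growth after 7 days; test rates 10 ppm or below.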

SMILES	IC90 [1] [µg/mL]	IC90 (Diplodia maydis (Dm)) [µg/mL]	Septoria Leaf Blotch Control at a compound concentration of 25 ppm or lower [2]	Barley Powdery Mildew Control at a compound concentration of 10 ppm or lower [3]	IC90 (Botrtyis cinerea (Bc)) [µg/mL]	Wheat Fusarium Head Blight Control at a compound concentration of 25 ppm or lower (Fusarium graminearum)	Asian Soybean Rust Control at a compound concentration of 25 ppm or lower (Phakopsora pachyrhizi)	IC90 [4] [µg/mL]	IC90 [5] [µg/mL]	IC90 (Septoria tritici (St)) [µg/mL]	IC90 [6] [µg/mL]	Wheat Leaf Rust Control at a compound concentration of 10 ppm or lower (Puccinia triticina)	IC90 (Rhizoctonia solani (Rs)) [µg/mL]	Cucumber Powdery Mildew Control at a compound concentration of 10 ppm or lower (Sphaerotheca fuliginea)
CCc1ccc(F)cc1[C@H](Cn1c(=O)n(C(C)(C)C(=O)NC(C)C)c(=O)c2c(C)c(-n3nccn3)sc21)OC[C@H](C)C#N [Compound I-284, 2-(1-((R)-2-((R)-2-cyanopropoxy)-2-(2-ethyl-5-fluorophenyl)ethyl)-5-methyl-2,4-dioxo-6-(2H-1,2,3-triazol-2-yl)-1,4-dihydrothieno[2,3-d]pyrimidin-3 (2H)-yl)-N-isopropyl-2-methylpropanamide]	0.08 (≈ 0.131 µM)	2 (≈ 3.28 µM)	AA (≥85% control of wheat septoria leaf blotch)	AA (≥85% control of barley powdery mildew)	0.4 (≈ 0.656 µM)	C (from 25 to 49% control of wheat fusarium head blight)	B (from 50 to 69% control of Asian soybean rust)	> 50	0.4 (≈ 0.656 µM)	> 50	0.08 (≈ 0.131 µM)	AA (≥85% control of wheat leaf rust)	0.08 (≈ 0.131 µM)	AA (≥85% control of cucumber powdery mildew)
CCOC(=O)c1sc2c(c1C)c(=O)n(C(C)(C)C(=O)NC(C)C)c(=O)n2C[C@H](OC[C@@H](C)C#N)c1cc(F)ccc1OC [Compound I-258, (R)-ethyl-1-(2-((S)-2-cyanopropoxy)-2-(5-fluoro-2-methoxyphenyl)ethyl)-3-(1-(isopropylamino)-2-methyl-1-oxopropan-2-yl)-5-methyl-2,4-dioxo-1,2,3,4-tetrahydrothieno[2,3-d]pyrimidine-6-carboxylate]	0.08 (≈ 0.13 µM)	0.4 (≈ 0.649 µM)	B (from 50 to 69% control of wheat septoria leaf blotch)	A (from 70% to 84% control of barley powdery mildew)	0.4 (≈ 0.649 µM)	C (from 25 to 49% control of wheat fusarium head blight)	C (from 25 to 49% control of Asian soybean rust)	≥ 10	0.4 (≈ 0.649 µM)	≥ 2	0.08 (≈ 0.13 µM)	A (from 70% to 84% control of wheat leaf rust)	0.08 (≈ 0.13 µM)	AA (≥85% control of cucumber powdery mildew)
COc1ccc(F)cc1[C@@H](O)Cn1c(=O)n([C@@H](C)C(=O)N(C)C(C)C)c(=O)c2c(C)c(-n3nccn3)sc21 [Compound I-189, (S)-2-(1-((R)-2-(5-fluoro-2-methoxyphenyl)-2-hydroxyethyl)-5-methyl-2,4-dioxo-6-(2H-1,2,3-triazol-2-yl)-1,4-dihydrothieno[2,3-d]pyrimidin-3 (2H)-yl)-N-isopropyl-N-methylpropanamide]	0.08 (≈ 0.147 µM)	0.4 (≈ 0.734 µM)	A (from 70% to 84% control of wheat septoria leaf blotch)	AA (≥85% control of barley powdery mildew)	0.4 (≈ 0.734 µM)	C (from 25 to 49% control of wheat fusarium head blight)	A (from 70% to 84% control of Asian soybean rust)	> 50	0.4 (≈ 0.734 µM)	50 (≈ 91.8 µM)	0.4 (≈ 0.734 µM)	AA (≥85% control of wheat leaf rust)	0.08 (≈ 0.147 µM)	AA (≥85% control of cucumber powdery mildew)
COc1ccc(F)cc1[C@H](Cn1c(=O)n([C@H](C)C(=O)NC2CCC2)c(=O)c2c(C)c(-n3cccn3)sc21)OCCC#N [Compound I-308, (R)-2-(1-((R)-2-(2-cyanoethoxy)-2-(5-fluoro-2-methoxyphenyl)ethyl)-5-methyl-2,4-dioxo-6-(1H-pyrazol-1-yl)-1,4-dihydrothieno[2,3-d]pyrimidin-3 (2H)-yl)-N-cyclobutylpropanamide]	0.4 (≈ 0.673 µM)	2 (≈ 3.36 µM)	AA (≥85% control of wheat septoria leaf blotch)	AA (≥85% control of barley powdery mildew)	0.4 (≈ 0.673 µM)	C (from 25 to 49% control of wheat fusarium head blight)	C (from 25 to 49% control of Asian soybean rust)	50 (≈ 84.1 µM)	2 (≈ 3.36 µM)	> 50	2 (≈ 3.36 µM)	AA (≥85% control of wheat leaf rust)	0.08 (≈ 0.135 µM)	AA (≥85% control of cucumber powdery mildew)
CCNC(=O)C(C)(C)n1c(=O)c2c(C)c(-n3nccn3)sc2n(C[C@H](OCCC#N)c2ccccc2OC)c1=O [Compound I-208, (R)-2-(1-(2-(2-cyanoethoxy)-2-(2-methoxyphenyl)ethyl)-5-methyl-2,4-dioxo-6-(2H-1,2,3-triazol-2-yl)-1,4-dihydrothieno[2,3-d]pyrimidin-3 (2H)-yl)-N-ethyl-2-methylpropanamide]	0.4 (≈ 0.707 µM)	2 (≈ 3.54 µM)	AA (≥85% control of wheat septoria leaf blotch)	AA (≥85% control of barley powdery mildew)	0.4 (≈ 0.707 µM)	C (from 25 to 49% control of wheat fusarium head blight)	AA (≥85% control of Asian soybean rust)	> 50	0.4 (≈ 0.707 µM)	> 50	2 (≈ 3.54 µM)	AA (≥85% control of wheat leaf rust)	0.08 (≈ 0.141 µM)	AA (≥85% control of cucumber powdery mildew)
COc1ccc(F)cc1[C@H](Cn1c(=O)n(C(C)(C)C(=O)NC(C)C)c(=O)c2c(C)c(-n3nccn3)sc21)OCC#N [Compound I-210, (R)-2-(1-(2-(cyanomethoxy)-2-(5-fluoro-2-methoxyphenyl)ethyl)-5-methyl-2,4-dioxo-6-(2H-1,2,3-triazol-2-yl)-1,4-dihydrothieno[2,3-d]pyrimidin-3 (2H)-yl)-N-isopropyl-2-methylpropanamide]	2 (≈ 3.43 µM)	0.4 (≈ 0.685 µM)	AA (≥85% control of wheat septoria leaf blotch)	AA (≥85% control of barley powdery mildew)	0.4 (≈ 0.685 µM)	C (from 25 to 49% control of wheat fusarium head blight)	AA (≥85% control of Asian soybean rust)	> 50	0.4 (≈ 0.685 µM)	> 50	≥ 0.4	A (from 70% to 84% control of wheat leaf rust)	0.08 (≈ 0.137 µM)	AA (≥85% control of cucumber powdery mildew)
